Measurements published in ChEMBL document CHEMBL1201862, “PubChem BioAssay data set” (2004).
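Where inhibition never reached the appropriate level, the endpoint shown equals the highest concentration tested. Otherwise, values were interpolated linearly from a five-concentration, 48-hour dose response in 96-well plates. GI50 is the concentration that inhibits growth by half.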 Calls of active or inactive are those of the source. Cut-off read from the data, not from the text of the source: active = GI50 up to about 1.1 µM and inactive = higher.

How the values were obtained:
Experiment in all cases: NCI tumour cell line growth inhibition, 48 h
[1] = tested on: IGROV-1
[2] = tested on: COLO 205
[3] = tested on: HCT-116
[4] = tested on: NCI-H226
[5] = tested on: SF-539
[6] = tested on: SNB-19
[7] = tested on: KM-20L2
[8] = tested on: A498
[9] = tested on: HCC 2998
[10] = tested on: EKVX
[11] = tested on: LXFL 529
[12] = tested on: UACC-62
[13] = tested on: DMS-273
[14] = tested on: ACHN
[15] = tested on: M14
[16] = tested on: OVCAR-8
[17] = tested on: SR
[18] = tested on: 786-0
[19] = tested on: HCT-15
[20] = tested on: DLD-1
[21] = tested on: CCRF-CEM
[22] = tested on: TK-10
[23] = tested on: HOP-62
[24] = tested on: SW-620
[25] = tested on: A549
[26] = tested on: RPMI-8226
[27] = tested on: MOLT-4
[28] = tested on: SF-295
[29] = tested on: HT-29
[30] = tested on: HL-60
[31] = tested on: OVCAR-4
[32] = tested on: SK-MEL-2
[33] = tested on: SF-268
[34] = tested on: UO-31
[35] = tested on: SNB-75
[36] = tested on: U-251
[37] = tested on: XF498
[38] = tested on: DMS-114
[39] = tested on: RXF 393
[40] = tested on: NCI-H460
[41] = tested on: UACC-257
[42] = tested on: K562
[43] = tested on: SK-MEL-28
[44] = tested on: Malme-3M
[45] = tested on: LOX IMVI
[46] = tested on: M19-MEL
[47] = tested on: OVCAR-3
[48] = tested on: SK-MEL-5
[49] = tested on: SN12C
[50] = tested on: SNB-78
[51] = tested on: HOP-18
[52] = tested on: NCI-H522
[53] = tested on: KM12
[54] = tested on: CAKI-1
[55] = tested on: OVCAR-5
[56] = tested on: SK-OV-3
[57] = tested on: NCI-H23
[58] = tested on: HOP-92

COC(=O)CC1NC(=O)[C@@H]1C(C)O (some centres not stated)
GI50 [1]: > 100 µM (inactive)
GI50 [2]: > 100 µM (inactive)
GI50 [3]: > 100 µM (inactive)
GI50 [4]: > 100 µM (inactive)
GI50 [5]: > 100 µM (inactive)
GI50 [6]: > 100 µM (inactive)
GI50 [7]: > 100 µM (inactive)
GI50 [8]: > 100 µM (inactive)
GI50 [9]: > 100 µM (inactive)
GI50 [10]: > 100 µM (inactive)
GI50 [11]: > 100 µM (inactive)
GI50 [12]: > 100 µM (inactive)
GI50 [13]: > 100 µM (inactive)
GI50 [14]: > 100 µM (inactive)
GI50 [15]: > 100 µM (inactive)
GI50 [16]: > 100 µM (inactive)
GI50 [17]: > 100 µM (inactive)
GI50 [18]: > 100 µM (inactive)
GI50 [19]: > 100 µM
GI50 [20]: > 10 µM (inactive)
GI50 [21]: > 100 µM (inactive)
GI50 [22]: > 100 µM (inactive)
GI50 [23]: > 100 µM (inactive)
GI50 [24]: > 100 µM (inactive)
GI50 [25]: > 100 µM (inactive)
GI50 [26]: > 100 µM (inactive)
GI50 [27]: > 100 µM (inactive)
GI50 [28]: > 100 µM (inactive)
GI50 [29]: > 100 µM (inactive)
GI50 [30]: > 100 µM (inactive)
GI50 [31]: > 100 µM (inactive)
GI50 [32]: > 100 µM (inactive)
GI50 [33]: > 100 µM (inactive)
GI50 [34]: > 100 µM (inactive)
GI50 [35]: > 100 µM (inactive)
GI50 [36]: > 100 µM (inactive)
GI50 [37]: > 100 µM (inactive)
GI50 [38]: > 100 µM (inactive)
GI50 [39]: > 100 µM (inactive)
GI50 [40]: > 100 µM (inactive)
GI50 [41]: > 100 µM (inactive)
GI50 [42]: > 100 µM (inactive)
GI50 [43]: > 100 µM (inactive)
GI50 [44]: > 100 µM (inactive)
GI50 [45]: > 100 µM (inactive)
GI50 [46]: > 100 µM (inactive)
GI50 [47]: > 100 µM (inactive)
GI50 [48]: > 100 µM (inactive)
GI50 [49]: > 100 µM (inactive)

N=S(=O)(c1ccccc1)c1ccccc1
GI50 [1]: > 100 µM (inactive)
GI50 [2]: > 100 µM (inactive)
GI50 [3]: > 100 µM (inactive)
GI50 [4]: > 100 µM (inactive)
GI50 [5]: > 100 µM (inactive)
GI50 [6]: > 100 µM (inactive)
GI50 [50]: > 100 µM (inactive)
GI50 [7]: > 100 µM (inactive)
GI50 [8]: > 100 µM (inactive)
GI50 [9]: > 100 µM (inactive)
GI50 [10]: > 100 µM (inactive)
GI50 [11]: > 100 µM (inactive)
GI50 [12]: > 100 µM (inactive)
GI50 [51]: > 100 µM (inactive)
GI50 [14]: > 100 µM (inactive)
GI50 [15]: > 100 µM (inactive)
GI50 [52]: > 100 µM (inactive)
GI50 [53]: > 100 µM (inactive)
GI50 [16]: > 100 µM (inactive)
GI50 [17]: > 100 µM (inactive)
GI50 [20]: > 100 µM (inactive)
GI50 [21]: 24.2 µM (inactive)
GI50 [23]: > 100 µM (inactive)
GI50 [54]: > 100 µM (inactive)
GI50 [24]: > 100 µM (inactive)
GI50 [25]: > 100 µM (inactive)
GI50 [26]: > 100 µM (inactive)
GI50 [27]: 22 µM (inactive)
GI50 [28]: > 100 µM (inactive)
GI50 [29]: > 10 µM (inactive)
GI50 [30]: > 100 µM (inactive)
GI50 [31]: > 100 µM (inactive)
GI50 [32]: > 100 µM (inactive)
GI50 [33]: > 100 µM (inactive)
GI50 [34]: > 100 µM (inactive)
GI50 [35]: > 100 µM (inactive)
GI50 [36]: > 100 µM (inactive)
GI50 [38]: > 100 µM (inactive)
GI50 [40]: > 100 µM (inactive)
GI50 [41]: > 100 µM (inactive)
GI50 [42]: 28.2 µM (inactive)
GI50 [43]: > 100 µM (inactive)
GI50 [55]: > 100 µM (inactive)
GI50 [44]: > 100 µM (inactive)
GI50 [56]: > 100 µM (inactive)
GI50 [45]: > 100 µM (inactive)
GI50 [46]: > 100 µM (inactive)
GI50 [47]: > 100 µM (inactive)
GI50 [48]: > 100 µM (inactive)
GI50 [57]: > 100 µM (inactive)
GI50 [49]: > 100 µM (inactive)

C[C@H]1C[C@@H]2[C@H]([C@@H](O)C[C@@]3(C)[C@H]2CC[C@]3(O)C(=O)CO)[C@@]2(C)C=CC(=O)C=C12 [METHYLPREDNISOLONE]
GI50 [1]: > 100 µM (inactive)
GI50 [2]: > 100 µM (inactive)
GI50 [3]: > 100 µM (inactive)
GI50 [4]: > 100 µM (inactive)
GI50 [7]: > 100 µM (inactive)
GI50 [8]: > 100 µM (inactive)
GI50 [9]: > 100 µM (inactive)
GI50 [12]: > 100 µM (inactive)
GI50 [51]: > 100 µM (inactive)
GI50 [58]: > 100 µM (inactive)
GI50 [13]: > 100 µM (inactive)
GI50 [14]: > 100 µM (inactive)
GI50 [15]: > 100 µM (inactive)
GI50 [52]: > 100 µM (inactive)
GI50 [53]: > 100 µM (inactive)
GI50 [16]: > 100 µM (inactive)
GI50 [17]: > 100 µM (inactive)
GI50 [18]: > 100 µM (inactive)
GI50 [19]: > 100 µM
GI50 [20]: > 100 µM (inactive)
GI50 [21]: 0.0429 µM (active)
GI50 [22]: > 100 µM (inactive)
GI50 [23]: > 100 µM (inactive)
GI50 [54]: > 100 µM (inactive)
GI50 [24]: > 100 µM (inactive)
GI50 [25]: > 100 µM (inactive)
GI50 [26]: > 100 µM (inactive)
GI50 [27]: > 100 µM (inactive)
GI50 [29]: > 100 µM (inactive)
GI50 [30]: > 100 µM (inactive)
GI50 [31]: > 100 µM (inactive)
GI50 [32]: > 100 µM (inactive)
GI50 [34]: > 100 µM (inactive)
GI50 [38]: > 100 µM (inactive)
GI50 [40]: > 100 µM (inactive)
GI50 [41]: > 100 µM (inactive)
GI50 [42]: > 100 µM (inactive)
GI50 [43]: > 100 µM (inactive)
GI50 [55]: > 100 µM (inactive)
GI50 [44]: > 100 µM (inactive)
GI50 [56]: > 100 µM (inactive)
GI50 [45]: > 100 µM (inactive)
GI50 [46]: > 100 µM (inactive)
GI50 [47]: > 100 µM (inactive)
GI50 [48]: > 100 µM (inactive)
GI50 [57]: > 100 µM (inactive)
GI50 [49]: 46.6 µM (inactive)
